Measured values: patent US10556884B2, “Pesticidally active heterocyclic derivatives with sulphur containing substituents” (SYNGENTA PARTICIPATIONS AG, priority 2015, dated 2020)

Key:
[1] = tested on: Diabrotica Balteata (Corn Root Worm); test: Diabrotica balteata L2 larvae on maize sprouts; type: in vivo; conditions: 96 h, application rate of 200 ppm, L2 larvae, 4 days after infestation, read-out: effect in at least one of the two categories (mortality or growth inhibition)
Experimental: Example B2: Diabrotica Balteata (Corn Root Worm)
Maize sprouts placed onto an agar layer in 24-well microtiter plates were treated with aqueous test solutions prepared from 10′000 ppm DMSO stock solutions by spraying. After drying, the plates were infested with L2 larvae (6 to 10 per well). The samples were assessed for mortality and growth inhibition in comparison to untreated samples 4 days after infestation.

[2] = tested on: Frankliniella occidentalis (Western Flower Thrips); test: Frankliniella occidentalis feeding/contact activity, sunflower leaf discs; type: in vivo; conditions: foliar, 168 h, application rate of 200 ppm, population of mixed ages, 7 days after infestation
Experimental: Example B4: Frankliniella occidentalis (Western Flower Thrips): Feeding/Contact Activity
Sunflower leaf discs were placed on agar in 24-well microtiter plates and sprayed with aqueous test solutions prepared from […] stock solutions. After drying the leaf discs were infested with a Frankliniella population of mixed ages. The samples were assessed for mortality 7 days after infestation.

[3] = tested on: Myzus persicae (Green Peach Aphid); test: Myzus persicae feeding/contact activity, sunflower leaf discs; type: in vivo; conditions: foliar, 144 h, application rate of 200 ppm, feeding/contact, population of mixed ages, 6 days after infestation, read-out: mortality
Experimental: Example B5: Myzus persicae (Green Peach Aphid): Feeding/Contact Activity
Sunflower leaf discs were placed onto agar in a 24-well microtiter plate and sprayed with aqueous test solutions prepared from 10′000 ppm DMSO stock solutions. After drying, the leaf discs were infested with an aphid population of mixed ages. The samples were assessed for mortality 6 days after infestation.

[4] = tested on: Myzus persicae (Green Peach Aphid); test: Myzus persicae systemic activity, pea seedlings; type: in vivo; conditions: 144 h, test rate of 24 ppm, 6 days after placing seedlings into test solutions
[5] = tested on: Euschistus heros (Neotropical Brown Stink Bug); test: Euschistus heros N2 nymphs on soybean leaves; type: in vivo; conditions: 120 h, application rate of 200 ppm, 5 days after infestation, read-out: effect in at least one of the two categories (mortality or growth inhibition)
[6] = tested on: Plutella xylostella (Diamond Back Moth); test: Plutella xylostella L2 larvae on artificial diet; type: in vivo; conditions: 120 h, application rate of 200 ppm, L2 larvae, 5 days after infestation, read-out: effect in at least one of the two categories (mortality or growth inhibition)
Experimental: Example B7: Plutella xylostella (Diamond Back Moth)
24-well microtiter plates with artificial diet were treated with aqueous test solutions prepared from 10′000 ppm DMSO stock solutions by pipetting. After drying, the plates were infested with L2 larvae (10 to 15 per well). The samples were assessed for mortality and growth inhibition in comparison to untreated samples 5 days after infestation.

[7] = tested on: Tetranychus urticae (Two-Spotted Spider Mite); test: Tetranychus urticae feeding/contact activity, bean leaf discs; type: in vivo; conditions: foliar, 192 h, application rate of 200 ppm, mixed population (mobile stages), 8 days after infestation
Experimental: Example B10: Tetranychus urticae (Two-Spotted Spider Mite): Feeding/Contact Activity
Bean leaf discs on agar in 24-well microtiter plates were sprayed with aqueous test solutions prepared from 10′000 ppm DMSO stock solutions. After drying the leaf discs were infested with a mite population of mixed ages. The samples were assessed for mortality on mixed population (mobile stages) 8 days after infestation.

[8] = tested on: Spodoptera littoralis (Egyqptian Cotton Leaf Worm); test: Spodoptera littoralis L1 larvae on sprayed cotton leaf discs; type: in vivo; conditions: foliar, 72 h, application rate of 200 ppm, L1 larvae, 3 days after infestation, read-out: control (mortality, anti-feeding effect, growth inhibition)
Experimental: Example B8: Spodoptera littoralis (Egyqptian Cotton Leaf Worm)
Cotton leaf discs were placed onto agar in 24-well microtiter plates and sprayed with aqueous test solutions prepared from 10′000 ppm DMSO stock solutions. After drying the leaf discs were infested with five L1 larvae. The samples were assessed for mortality, anti-feeding effect, and growth inhibition in comparison to untreated samples 3 days after infestation. Control of Spodoptera littoralis by a test sample is given when at least one of the categories mortality, anti-feedant effect, and growth inhibition is higher than the untreated sample.

Compound	mortality at 200 ppm [2]	mortality at 200 ppm [3]	mortality at 24 ppm [4]	percent effect (mortality or growth inhibition) at 200 ppm [5]	also measured
CCS(=O)(=O)c1cc(NC(=O)C2CC2)cnc1-c1nnc(-c2cc(C(F)(F)F)ccn2)n1C [A2, N-[5-ethylsulfonyl-6-[4-methyl-5-[4-(trifluoromethyl)-2-pyridyl]-1,2,4-triazol-3-yl]-3-pyridyl]cyclopropanecarboxamide]	≥ 80%	≥ 80%	≥ 80%		percent effect (mortality or growth inhibition) at 200 ppm [1]: ≥ 80%
CCS(=O)(=O)c1ccc(NC(=O)C2CC2)nc1-c1nnc(-c2cc(C(F)(F)F)ccn2)n1C [A6, N-[5-ethylsulfonyl-6-[4-methyl-5-[4-(trifluoromethyl)-2-pyridyl]-1,2,4-triazol-3-yl]-2-pyridyl]cyclopropanecarboxamide]	≥ 80%	≥ 80%	≥ 80%		
CCS(=O)(=O)c1cc(N(C)C(=O)C2CC2)cnc1-c1nnc(-c2cc(C(F)(F)F)ccn2)n1C [A7, N-[5-ethylsulfonyl-6-[4-methyl-5-[4-(trifluoromethyl)-2-pyridyl]-1,2,4-triazol-3-yl]-3-pyridyl]-N-methyl-cyclopropanecarboxamide]	≥ 80%	≥ 80%	≥ 80%	≥ 80%	percent effect (mortality or growth inhibition) at 200 ppm [6]: ≥ 80%
CCS(=O)(=O)c1cc(C(=O)NC2CC2)cnc1-c1nnc(-c2cc(C(F)(F)F)ccn2)n1C [A18, N-cyclopropyl-5-ethylsulfonyl-6-[4-methyl-5-[4-(trifluoromethyl)-2-pyridyl]-1,2,4-triazol-3-yl]pyridine-3-carboxamide]			≥ 80%		mortality at 200 ppm [7]: ≥ 80%
CCS(=O)(=O)c1cc(N(C(=O)C2CC2)S(C)(=O)=O)cnc1-c1nnc(-c2cc(C(F)(F)F)ccn2)n1C [A20, N-[5-ethylsulfonyl-6-[4-methyl-5-[4-(trifluoromethyl)-2-pyridyl]-1,2,4-triazol-3-yl]-3-pyridyl]-N-methylsulfonyl-cyclopropanecarboxamide]					melting point: 229 to 231 °C
CCS(=O)(=O)c1cc(C(=O)NC2(C#N)CC2)cnc1-c1nnc(-c2cc(C(F)(F)F)ccn2)n1C [A23, N-(1-cyanocyclopropyl)-5-ethylsulfonyl-6-[4-methyl-5-[4-(trifluoromethyl)-2-pyridyl]-1,2,4-triazol-3-yl]pyridine-3-carboxamide]					melting point: 211 to 213 °C
CCS(=O)(=O)c1cc(N(C)N)cnc1-c1nnc(-c2cc(C(F)(F)F)ccn2)n1C [A30, 1-[5-ethylsulfonyl-6-[4-methyl-5-[4-(trifluoromethyl)-2-pyridyl]-1,2,4-triazol-3-yl]-3-pyridyl]-1-methyl-hydrazine]		≥ 80%		≥ 80%	
CCS(=O)(=O)c1ccc(NCC(F)(F)F)nc1-c1nnc(-c2cc(C(F)(F)F)ccn2)n1C [A32, 5-ethylsulfonyl-6-[4-methyl-5-[4-(trifluoromethyl)-2-pyridyl]-1,2,4-triazol-3-yl]-N-(2,2,2-trifluoroethyl)pyridin-2-amine]					mortality at 200 ppm [7]: ≥ 80%
CCS(=O)(=O)c1ccc(N)nc1-c1nnc(-c2cc(C(F)(F)F)ccn2)n1C [A36, 5-ethylsulfonyl-6-[4-methyl-5-[4-(trifluoromethyl)-2-pyridyl]-1,2,4-triazol-3-yl]pyridin-2-amine]		≥ 80%	≥ 80%	≥ 80%	
CCS(=O)(=O)c1ccc(NC(=O)OC(C)(C)C)nc1-c1nnc(-c2cc(C(F)(F)F)ccn2)n1C [A37, tert-butyl N-[5-ethylsulfonyl-6-[4-methyl-5-[4-(trifluoromethyl)-2-pyridyl]-1,2,4-triazol-3-yl]-2-pyridyl]carbamate]	≥ 80%		≥ 80%		percent effect (mortality or growth inhibition) at 200 ppm [6]: ≥ 80%; mortality at 200 ppm [8]: ≥ 80%
